From US20200397894A1, “COMPOSITIONS AND METHODS FOR TREATING CANCER” (University of Virginia Patent Foundation, priority 2016, published 2020)

Key:
Assay type in all cases: cell-based, human
DM93 cells [1] = test: BrdU staining and flow cytometry (rereplication); conditions: DM93, pevonedistat
Method: The effects of pevonedistat and/or silencing of cell cycle-associated proteins on cell cycle distribution or rereplication were assessed by flow cytometry according to the manufacturer's instructions. Different melanoma lines were transfected with si-GL2, si-CDT2, si-CDT1, si-SET8, si-p21, or si-geminin for a time ranging from 24 to 96 hours. At the end of treatment, cells were pulsed with BrdU (10 nM) for 1 hour in the dark prior to harvesting. Cells were washed with PBS and staining solution before the fixation and permeabilization steps according to the manufacturer's instructions. Cells were subsequently stained with anti-BrdU antibody solution for 20 minutes at room temperature, washed, and stained with 7-AAD solution for 30 minutes at 4° C. The cells were resuspended in 1 ml of staining buffer and kept overnight at 4° C. before analysis. Samples were analyzed on a FFACSCAN™ (Becton, Dickinson and Company, Franklin Lakes, N.J., United States of America), and different phases of the cell cycle were determined using FLOWJO® (FLOWJO, LLC, Ashland, Oreg., United States of America) and ModFit (Verity Software House, Topsham, Me., United States of America) software.

FaDu cells = test: Rereplication by propidium iodide staining and FACS (HNSCC)
Method: The effect of pevonedistat treatment or CDT2, geminin, or EMI1 knockdown on the cell cycle (and induction of DNA rereplication) was assessed by flow cytometry with propidium iodide (PI) staining. Cells were harvested at 72 or 96 hours post-treatment with pevonedistat or post-transfection, respectively. Cells were collected, washed with PBS, and resuspended in ethanol (75%). Cells were subsequently treated with 20 μg of DNase-free RNase and stained with PI following the manufacturer's protocol. FACSCAN™ (Becton, Dickinson and Company, Franklin Lakes, N.J., United States of America) was used to analyze the samples and G0-G1, S, and G2-M fractions were segmented. Subsequent analysis using FLOWJO® (FLOWJO, LLC, Ashland, Oreg., United States of America) and ModFit (Verity Software House, Topsham, Me., United States of America) software was used to determine apoptotic and re-replicating fractions. Where indicated, Cal27 and FaDu cells were treated with pevonedistat for 48 hours and pulsed with BrdU (10 nM) for 1 hour in the dark prior to harvesting. Cells were washed with PBS and staining solution before fixation and permeabilization steps according to the manufacturer's protocol. Cells were subsequently stained with anti-BrdU antibody solution for 20 minutes at room temperature, washed, and stained with 7-AAD for 30 minutes at 4° C. Cells were resuspended in 1 ml of staining buffer and stored at 4° C. overnight before analysis. Sampled were analyzed on a FACSCAN™ (Becton, Dickinson and Company, Franklin Lakes, N.J., United States of America), and different fractions of BrdU positive cells were determined using FLOWJO® (FLOWJO, LLC, Ashland, Oreg., United States of America) and ModFit (Verity Software House, Topsham, Me., United States of America) software.

DM93 cells [2] = test: Clonogenic survival assay
Method: (§1) Cell survival following CDT2 depletion or pevonedistat treatment was assessed by clonogenic survival assay, preformed in triplicates. 72 hours following transfection with si-GL2 or si-CDT2, cells were trypsinized, counted, and seeded in 60 mm dishes. For pevonedistat treatments, cells were counted and seeded in 60 mm dishes and treated 24 hours later with various doses of pevonedistat or with DMSO. Cells were cultured for two weeks and were subsequently washed in cold PBS, fixed in cold methanol for 10 minutes, and stained with crystal violet (0.5%) for 10 minutes. Plates were washed with water, dried, and pictures were captured using IMAGE LAB™ software (BioRad Laboratories, Inc., Hercules, Calif., United States of America). Quantification of colonies was performed using QUANTITY ONE® software (BioRad Laboratories, Inc., Hercules, Calif., United States of America). Results are represented as mean±s.e.m. of triplicates normalized to the corresponding DMSO-treated or si-GL2 transfected controls.

VMM39 cells = test: Clonogenic survival assay
Method: as §1

DM93 cells [3] = test: Senescence-associated β-galactosidase assay; conditions: DM93, pevonedistat, as early as 48 hours post-treatment
Method: Senescence was monitored using β-galactosidase (β-gal) staining. Following the various treatments, cells were washed twice with PBS, fixed with 2% formaldehyde/0.2% gluteraldehyde in PBS for 15 minutes at room temperature, and washed twice with PBS. The cells were stained with fresh X-Gal solution (1 mg/ml X-gal, 40 mM C6H8O7.H2O, 5 mM K3Fe(CN)6, 5 mM K4Fe(CN)6.3H2O, 150 mM NaCl, and 2 mM MgCl2.6H2O in PBS) for 3-12 hours at 37° C. in the dark. Cells were washed three times in PBS and fixed with 100% methanol for 5 minutes at room temperature. Bright field blue color images were taken with an AMG EVOS® XL Core Imager/camera microscope (Life Technologies, Inc., Carlsbad, Calif., United States of America) counting at least 100 cells from at least 3 fields.

## NS(=O)(=O)OCC1CC(n2ccc3c(NC4CCc5ccccc54)ncnc32)CC1O [pevonedistat, ((1S,2S,4R)-4-(4-((1S)-2,3-Dihydro-H-inden-1-ylamino)-7H-pyrrolo(2,3-d)pyrimidin-7-yl)-2-hydroxycyclopentyl)methyl sulphamate]
DM93 cells [1]; 24 hours
  cells with rereplication within the same cell cycle (BrdU labeling): 17.3%
DM93 cells [1]; 48 hours
  cells with rereplication within the same cell cycle (BrdU labeling): 61.7%
FaDu cells; 40 nM pevonedistat 48 hours plus 2 Gy at the 24 hour time point
  cells undergoing rereplication: 42.2%
FaDu cells; 40 nM pevonedistat for 48 hours
  cells undergoing rereplication: 21.6%
FaDu cells; 100 nM pevonedistat, PI staining
  cells exhibiting >4N DNA content: 60.4%
DM93 cells [2]
  drug concentration inhibiting proliferation (clonogenic survival): 100 nM
VMM39 cells
  drug concentration inhibiting proliferation (clonogenic survival): 50 nM
DM93 cells [3]
  senescence: majority of cells underwent senescence
